Target: human TLR2 (Homo sapiens, UniProt O60603)
Assay: Reporter gene assay: HEK 293 cells stably transfected with human TLR2 and NF-kB-driven luciferase reporter
Conditions: for Emax: HEK293, 7 h, read-out: Hek-TLR2 (% Eff); for EC50: Hek-TLR2 μM (EC50), HEK 293 stably transfected with human TLR2 and pNifty-Luciferase, 7 hours incubation, concentration giving 50% of maximal signal
Method: As a control assay, normal Hek293 transfected with pNifty-Luc were used. […] Bright-Glo™ Luciferase assay buffer and substrate were supplied by Promega #E263B and #E264B (assay substrate and buffer respectively). 384 well clear-bottom plates were supplied by Greiner bio-one (#789163-G) and were custom bar-coded plates.
Cells were plated at 25,000 cells/well in 384-well plates in a final volume of 50 μl of media. Cells were allowed to adhere to the plates after overnight (18 hours) culture at 37° C. and 5% CO2. Serially diluted experimental and positive control compounds were then dispensed to each well and incubated for 7 hours at 37° C. and 5% CO2. Cells stimulated with DMSO alone also serve as negative controls. After the incubation, 30 μl of the pre-mix assay buffer and substrate buffer were added to each well according to manufacturer's instructions. The luminescence signal was read on a CLIPR machine with an integration time of 20 seconds per plate.

Sequence of human TLR2 (O60603 21-784): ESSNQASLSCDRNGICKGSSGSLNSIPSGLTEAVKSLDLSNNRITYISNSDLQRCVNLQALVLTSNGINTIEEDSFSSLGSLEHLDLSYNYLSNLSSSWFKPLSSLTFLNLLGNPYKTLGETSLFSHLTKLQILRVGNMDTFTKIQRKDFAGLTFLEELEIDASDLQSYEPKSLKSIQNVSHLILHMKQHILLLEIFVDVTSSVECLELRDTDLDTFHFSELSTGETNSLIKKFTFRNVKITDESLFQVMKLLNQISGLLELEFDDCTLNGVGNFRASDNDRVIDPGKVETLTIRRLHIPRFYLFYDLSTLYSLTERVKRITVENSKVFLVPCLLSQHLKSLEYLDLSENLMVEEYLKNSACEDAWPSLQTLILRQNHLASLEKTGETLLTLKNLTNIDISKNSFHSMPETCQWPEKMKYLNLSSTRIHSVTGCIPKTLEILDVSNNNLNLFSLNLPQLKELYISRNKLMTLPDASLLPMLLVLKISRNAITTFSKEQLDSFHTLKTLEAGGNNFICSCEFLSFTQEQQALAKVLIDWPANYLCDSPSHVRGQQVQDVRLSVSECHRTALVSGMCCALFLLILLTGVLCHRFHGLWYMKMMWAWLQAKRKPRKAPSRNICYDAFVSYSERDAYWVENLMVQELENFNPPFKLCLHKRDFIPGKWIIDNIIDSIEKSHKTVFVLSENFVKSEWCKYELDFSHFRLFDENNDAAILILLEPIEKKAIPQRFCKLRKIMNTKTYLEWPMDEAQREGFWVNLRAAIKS

Row | Structure (SMILES) | Emax [%] | EC50 [nM] | Hek-TLR2 (% Eff) (% Eff relative to Pam3CSK4, HEK 293 human TLR2 NF-kB luciferase)
1 | CCCCCCCCCCCC(=O)OC[C@H](CSC[C@H](N)C(=O)NCCCOCCOCCOCCCN)OC(=O)CCCCCCCCCCC [Example 64, (16R,20R)-1,16-diamino-15-oxo-4,7,10-trioxa-18-thia-14-azahenicosane-20,21-diyl didodecanoate] | 124 | 498 | 
2 | CCCCCCCCCCCC(=O)OC[C@H](CSC[C@H](N)C(=O)NCCc1ccc(OCCC(C)C)cc1)OC(=O)CCCCCCCCCCC [Example 44, (R)-3-(((R)-2-amino-3-((4-(isopentyloxy)phenethyl)amino)-3-oxopropyl)thio)propane-1,2-diyl didodecanoate] | 72 | 8170 | 
3 | CCCCCCCCCCCC(=O)OC[C@H](CSC[C@H](N)C(=O)NC(C)(C)CO)OC(=O)CCCCCCCCCCC [Example 43, (R)-3-(((R)-2-amino-3-((1-hydroxy-2-methylpropan-2-yl)amino)-3-oxopropyl)thio)propane-1,2-diyl didodecanoate] | 54 | 15500 | 
4 | CCCCCCCCCCCCCCCC(=O)N[C@@H](CSC[C@@H](COC(=O)CCCCCCCCCCC)OC(=O)CCCCCCCCCCC)C(=O)NCCCOCCOCCOCCCNC(=O)CCC1OCCO1 [Example 40, (20R,24R)-1-(1,3-dioxolan-2-yl)-3,19-dioxo-20-palmitamido-8,11,14-trioxa-22-thia-4,18-diazapentacosane-24,25-diyl didodecanoate] | 25 | 96 | 
5 | CCCCCCCCCCCC(=O)OC[C@H](CSC[C@H](N)C(=O)NC(Cc1ccccc1)c1ccccc1)OC(=O)CCCCCCCCCCC (stereo partly drawn) [Example 67, (2R)-3-(((2R)-2-amino-3-((1,2-diphenylethyl)amino)-3-oxopropyl)thio)propane-1,2-diyl didodecanoate] | 64 | 68 | 
6 | CCCCCCCCCCNC(=O)OC[C@H](CSC[C@H](NC(C)=O)C(=O)NCCOCCOCCOCCP(=O)(O)O)OC(=O)NCCCCCCCCCC [Example 82, ((14R,18R)-14-acetamido-18-((decylcarbamoyl)oxy)-13,21-dioxo-3,6,9,20-tetraoxa-16-thia-12,22-diazadotriacontyl)phosphonic acid] | 84 | 830 | 
7 | CCCCCCCCCCCCCCCCOC[C@H](CSC[C@H](N)C(=O)NC1(CO)CC1)NC(=O)CCCCCCCCCCC [Example 11, N—((R)-1-((R)-2-amino-3-(1-(hydroxymethyl)cyclopropylamino)-3-oxopropylthio)-3-(hexadecyloxy)propan-2-yl)dodecanamide] | 3.6 | > 100000 | 
8 | CCCCCCCCCCCC(=O)OC[C@H](CSC[C@H](N)C(=O)NCCc1ccc(OCCOCCO)cc1)OC(=O)CCCCCCCCCCC [Example 41, (R)-3-(((R)-2-amino-3-((4-(2-(2-hydroxyethoxy)ethoxy)phenethyl)amino)-3-oxopropyl)thio)propane-1,2-diyl didodecanoate] | 61 | 15300 | 
9 | CCCCCCCCCCCC(=O)OC[C@H](CSC[C@H](N)C(=O)NCCCCCCCCCC(=O)O)OC(=O)CCCCCCCCCCC [Example 42, 10-((R)-2-amino-3-(((R)-2,3-bis(dodecanoyloxy)propyl)thio)propanamido)decanoic acid] | 101 | 4400 | 
10 | CCCCCCCCCCCC(=O)OC[C@H](CSC[C@H](N)C(=O)NCCOCCOCCOCCC(=O)O)OC(=O)CCCCCCCCCCC [Example 86, (15R,19R)-15-amino-19-(dodecanoyloxy)-14,22-dioxo-4,7,10,21-tetraoxa-17-thia-13-azatritriacontan-1-oic acid] | 84 | 900 | 
11 | CCCCCCCCCCCCOC[C@H](CSC[C@H](N)C(=O)NCCOCCOCCOCCOCCP(=O)(O)O)OCCCCCCCCCCCC [Example 78, ((17R,21R)-17-amino-21-(dodecyloxy)-16-oxo-3,6,9,12,23-pentaoxa-19-thia-15-azapentatriacontyl)phosphonic acid] | 35 | 1430 | 
12 | CCCCCCCCCCNC(=O)OC[C@H](CSC[C@H](N)C(=O)NCCOCCOCCOCCP(=O)(O)O)OC(=O)NCCCCCCCCCC [Example 36, (14R,18R)-14-amino-18-(decylcarbamoyloxy)-13,21-dioxo-3,6,9,20-tetraoxa-16-thia-12,22-diazadotriacontylphosphonic acid] |  | 822 | (76%)
13 | CCCCCCCCCCCCOC[C@H](CSC[C@H](N)C(=O)NCCOCCOCCC(F)(F)P(=O)(O)O)OCCCCCCCCCCCC [Example 22, (12R,16R)-12-amino-16-(dodecyloxy)-1,1-difluoro-11-oxo-4,7,18-trioxa-14-thia-10-azatriacontylphosphonic acid] | 60 | 2450 | 
14 | CCCCCCCCCCCC(=O)OC[C@H](CSC[C@H](N)C(=O)NCCCCN)OC(=O)CCCCCCCCCCC [Example 57, (R)-3-(((R)-2-amino-3-((4-aminobutyl)amino)-3-oxopropyl)thio)propane-1,2-diyl didodecanoate] | 111 | 1040 | 
15 | CCCCCCCCCCCCCC(=O)OC[C@H](CSC[C@H](N)C(=O)NCCOCCOCCOCCP(=O)(O)O)OC(=O)CCCCCCCCCCCCC [Example 25, (14R,18R)-14-amino-13,21-dioxo-18-(tetradecanoyloxy)-3,6,9,20-tetraoxa-16-thia-12-azatetratriacontylphosphonic acid] | 99 | 6.3 | 
16 | CCCCCCCCCCCC(=O)OC[C@H](CSC[C@H](N)C(=O)NCCCOCCCCOCCCN)OC(=O)CCCCCCCCCCC [Example 8, (2R,6R)-6,20-diamino-7-oxo-12,17-dioxa-4-thia-8-azaicosane-1,2-diyl didodecanoate] | 98 | 810 | 
17 | CCCCCCCCCCCCOC[C@H](CSC[C@H](N)C(=O)N[C@@H](CO)C(=O)NCCOCCOCCP(=O)(O)O)OCCCCCCCCCCCC [Example 80, ((11S,14R,18R)-14-amino-18-(dodecyloxy)-11-(hydroxymethyl)-10,13-dioxo-3,6,20-trioxa-16-thia-9,12-diazadotriacontyl)phosphonic acid] | 52 | 1910 | 
18 | CCCCCCCCCCCC(=O)OC[C@H](CSC[C@H](N)C(=O)N[C@@H](C)COCCCP(=O)(O)O)OC(=O)CCCCCCCCCCC [Example 14, (6S,9R,13R)-9-amino-13-(dodecanoyloxy)-6-methyl-8,16-dioxo-4,15-dioxa-11-thia-7-azaheptacosylphosphonic acid] | 153 | 19.2 | 
19 | CCCCCCCCCCCCOC[C@H](CSC[C@H](N)C(=O)N[C@@H](C)C(=O)NCCOCCOCCP(=O)(O)O)OCCCCCCCCCCCC [Example 30, ((11S,14R,18R)-14-amino-18-(dodecyloxy)-11-methyl-10,13-dioxo-3,6,20-trioxa-16-thia-9,12-diazadotriacontyl)phosphonic acid] | 59 | 920 | 
20 | CCCCCCCCCCCC(=O)OC[C@H](CSC[C@H](N)C(=O)NCCOCCC(F)(F)P(=O)(O)O)OC(=O)CCCCCCCCCCC [Example 21, (9R,13R)-9-amino-13-(dodecanoyloxy)-1,1-difluoro-8,16-dioxo-4,15-dioxa-11-thia-7-azaheptacosylphosphonic acid] | 122 | 14 | 
21 | CCCCCCCCCCCCCCCC(=O)N[C@@H](CSC[C@@H](COC(=O)NCCCCCCCCCC)OC(=O)NCCCCCCCCCC)C(=O)NCCOCCOCCOCCP(=O)(O)O [Example 39, (14R,18R)-18-(decylcarbamoyloxy)-13,21-dioxo-14-palmitamido-3,6,9,20-tetraoxa-16-thia-12,22-diazadotriacontylphosphonic acid] | 92 | 2640 | 
22 | CCCCCCCCCCCCOC[C@H](CSC[C@H](N)C(=O)NCCOCCOCCOCCC(=O)O)OCCCCCCCCCCCC [Example 32, (15R,19R)-15-amino-19-(dodecyloxy)-14-oxo-4,7,10,21-tetraoxa-17-thia-13-azatritriacontan-1-oic acid] | 78 | 9130 | 
23 | CCCCCCCCCCCC(=O)OC[C@H](CSC[C@H](N)C(=O)N[C@@H](CO)C(=O)NCCOCCOCCOCCC(=O)O)OC(=O)CCCCCCCCCCC [Example 88, (15S,18R,22R)-18-amino-22-(dodecanoyloxy)-15-(hydroxymethyl)-14,17,25-trioxo-4,7,10,24-tetraoxa-20-thia-13,16-diazahexatriacontan-1-oic acid] | 145 | 9.2 | 
24 | CCCCCCCCCCNC(=O)OC[C@H](CSC[C@H](N)C(=O)NCCOCCOCCOCCP(=O)(O)O)OC(=O)NCCCCCCCCCC [Example 83, ((14R,18R)-14-amino-18-((decylcarbamoyl)oxy)-13,21-dioxo-3,6,9,20-tetraoxa-16-thia-12,22-diazadotriacontyl)phosphonic acid] | 76 | 820 | 
25 | CCCCCCCCCCCC(=O)OC[C@H](CSC[C@H](N)C(=O)NCCc1ccc(OCCCP(=O)(O)O)cc1)OC(=O)CCCCCCCCCCC [Example 16, 3-(4-(2-((R)-2-amino-3-((R)-2,3-bis(dodecanoyloxy)propylthio)propanamido)ethyl)phenoxy)propylphosphonic acid] | 107 | 410 | 
26 | CCCCCCCCCCCCCCCC(=O)N[C@@H](CSC[C@@H](COC(=O)CCCCCCCCCCC)OC(=O)CCCCCCCCCCC)C(=O)NCCOCCOCCOCCP(=O)(O)O [Example 34, ((14R,18R)-18-(dodecanoyloxy)-13,21-dioxo-14-palmitamido-3,6,9,20-tetraoxa-16-thia-12-azadotriacontyl)phosphonic acid] | 47 | > 100000 | 
27 | CCCCCCCCCCCCOC[C@H](CSC[C@H](N)C(=O)N[C@@H](C)C(=O)NCCOCCOCCP(=O)(O)O)NC(=O)CCCCCCCCCCC [Example 31, ((11S,14R,18R)-14-amino-18-dodecanamido-11-methyl-10,13-dioxo-3,6,20-trioxa-16-thia-9,12-diazadotriacontyl)phosphonic acid] | 35 | 2910 | 
